According to a compilation of properties of binary mixtures (doi:10.1021/je050387r):

Assay: xn = mol fraction of the nth substance listed
Details: 101 kPa

O + CCCC[n+]1ccn(C)c1.F[B-](F)(F)F
viscosity (303.15 K, x1 = 1): 0.8 mPa·s | viscosity (308.15 K, x1 = 1): 0.72 mPa·s | viscosity (313.15 K, x1 = 1): 0.65 mPa·s | viscosity (318.15 K, x1 = 1): 0.6 mPa·s | viscosity (323.15 K, x1 = 1): 0.55 mPa·s | viscosity (343.15 K, x1 = 1): 0.4 mPa·s | viscosity (353.15 K, x1 = 1): 0.35 mPa·s

CCCC[n+]1ccn(C)c1.F[B-](F)(F)F + O
viscosity (303.15 K, x2 = 0.1002): 47.6 mPa·s | viscosity (303.15 K, x2 = 0.209): 34.9 mPa·s | viscosity (303.15 K, x2 = 0.2984): 23.3 mPa·s | viscosity (303.15 K, x2 = 0.4001): 16.6 mPa·s | viscosity (303.15 K, x2 = 0.5014): 12 mPa·s | viscosity (303.15 K, x2 = 0.6004): 10 mPa·s | viscosity (303.15 K, x2 = 0.7): 6.7 mPa·s | viscosity (303.15 K, x2 = 0.8): 4.36 mPa·s | viscosity (303.15 K, x2 = 0.8999): 2.53 mPa·s | viscosity (308.15 K, x2 = 0): 58.2 mPa·s | viscosity (308.15 K, x2 = 0.2984): 19.4 mPa·s | viscosity (308.15 K, x2 = 0.4001): 13.6 mPa·s | viscosity (308.15 K, x2 = 0.5014): 10.5 mPa·s | viscosity (308.15 K, x2 = 0.6004): 8.7 mPa·s | viscosity (308.15 K, x2 = 0.7): 5.85 mPa·s | viscosity (308.15 K, x2 = 0.8): 3.8 mPa·s | viscosity (308.15 K, x2 = 0.8999): 2.21 mPa·s | viscosity (313.15 K, x2 = 0.1002): 30.7 mPa·s | viscosity (313.15 K, x2 = 0.209): 23.5 mPa·s | viscosity (313.15 K, x2 = 0.2984): 16.2 mPa·s | viscosity (313.15 K, x2 = 0.4001): 11.4 mPa·s | viscosity (313.15 K, x2 = 0.7): 5.35 mPa·s | viscosity (313.15 K, x2 = 0.8): 3.36 mPa·s | viscosity (313.15 K, x2 = 0.8999): 1.95 mPa·s | viscosity (318.15 K, x2 = 0): 37.8 mPa·s | viscosity (318.15 K, x2 = 0.1002): 25.7 mPa·s | viscosity (318.15 K, x2 = 0.209): 19.6 mPa·s | viscosity (318.15 K, x2 = 0.2984): 14.1 mPa·s | viscosity (318.15 K, x2 = 0.4001): 9.7 mPa·s | viscosity (318.15 K, x2 = 0.5014): 7.8 mPa·s | viscosity (318.15 K, x2 = 0.7): 4.53 mPa·s | viscosity (318.15 K, x2 = 0.8): 2.99 mPa·s | viscosity (318.15 K, x2 = 0.8999): 1.73 mPa·s | viscosity (323.15 K, x2 = 0): 31.1 mPa·s | viscosity (323.15 K, x2 = 0.1002): 21.5 mPa·s | viscosity (323.15 K, x2 = 0.2984): 11.7 mPa·s | viscosity (323.15 K, x2 = 0.5014): 6.8 mPa·s | viscosity (323.15 K, x2 = 0.6004): 5.69 mPa·s | viscosity (323.15 K, x2 = 0.7): 4.05 mPa·s | viscosity (323.15 K, x2 = 0.8): 2.68 mPa·s | viscosity (323.15 K, x2 = 0.8999): 1.54 mPa·s | viscosity (333.15 K, x2 = 0): 21.5 mPa·s | viscosity (333.15 K, x2 = 0.1002): 15.4 mPa·s | viscosity (333.15 K, x2 = 0.209): 12 mPa·s | viscosity (333.15 K, x2 = 0.2984): 8.6 mPa·s | viscosity (333.15 K, x2 = 0.4001): 6.2 mPa·s | viscosity (333.15 K, x2 = 0.5014): 5.28 mPa·s | viscosity (333.15 K, x2 = 0.6004): 4.75 mPa·s | viscosity (333.15 K, x2 = 0.7): 3.29 mPa·s | viscosity (333.15 K, x2 = 0.8): 2.19 mPa·s | viscosity (333.15 K, x2 = 0.8999): 1.28 mPa·s | viscosity (343.15 K, x2 = 0): 15.6 mPa·s | viscosity (343.15 K, x2 = 0.1002): 11.5 mPa·s | viscosity (343.15 K, x2 = 0.209): 9 mPa·s | viscosity (343.15 K, x2 = 0.4001): 4.68 mPa·s | viscosity (343.15 K, x2 = 0.5014): 4.24 mPa·s | viscosity (343.15 K, x2 = 0.8): 1.82 mPa·s | viscosity (353.15 K, x2 = 0): 11.5 mPa·s | viscosity (353.15 K, x2 = 0.209): 6.8 mPa·s | viscosity (353.15 K, x2 = 0.2984): 4.96 mPa·s | viscosity (353.15 K, x2 = 0.4001): 3.56 mPa·s | viscosity (353.15 K, x2 = 0.5014): 3.44 mPa·s | viscosity (353.15 K, x2 = 0.7): 2.31 mPa·s | viscosity (353.15 K, x2 = 0.8): 1.54 mPa·s | viscosity (353.15 K, x2 = 0.8999): 0.91 mPa·s
